In US10716773B2, “Compositions comprising 15-HEPE and methods of treating or preventing cancer and neurologic disease” (Afimmune Limited, priority 2015, dated 2020):
Where “and” joins values, the source holds several entries; their conditions need not be identical. Equal values may be shown once.

Experiments:
[1] = test system: normal human dermal fibroblasts (NHDF); assay: MTT reduction assay and observation of the cell layers: viability of fibroblasts after 48 hours of incubation; assay type: cell-based; settings: for Visability (%): single replicates
Experimental: Normal human dermal fibroblasts (NHDF) were used at the 8th passage. Cells were cultured at 37° C., 5% CO2 in DMEM supplemented with L-glutamine 2 mM, 50 U/ml Penicillin, 50 μg/ml Streptomycin and 10% Foetal calf serum (FCS).

caspase-3/7 = assay: Staurosporine-induced caspase-3/7 activity in NHDF, measured in cell lysates with fluorogenic substrate Ac-DEVD-AMC; assay type: cell-based, human; settings: for Caspase-3/7 activity (Fluorescence 380 nm/440 nm) / Caspase-3/7 activity - Background (Fluorescence 380 nm/440 nm) / Caspese-3/7 activity/proteins: single replicates
Experimental: The potential inhibitory effect of compounds 15(S)-HEPE EE and EPA EE was evaluated on staurosporine-induced caspase activation in normal human dermal fibroblasts (NHDF). […] Normal human dermal fibroblasts (NHDF) were used at the 8th passage. […] Fibroblasts were seeded in 24-well plates and cultured for 24 hours in culture medium. The medium was then removed and replaced by assay medium containing or not (control) the test compounds and cells were pre-incubated for 24 hours. […] The cells were then incubated for 24 hours. Non-stimulated controls (without inducer) were performed in parallel. All experimental conditions were performed in n=3. […] Enzyme activity assay and protein quantification assay were performed in separated plates due to the fact that DTT used in the lysis buffer for caspase activity interferes with protein quantification. […] Lysis buffer: HEPES buffer (pH 7.4) containing EDTA, Triton X-100, NP-40 and DTT Assay Buffer: HEPES buffer (pH 7.4) containing NaCl, EDTA, NP-40, glycerol and DTT Substrate: Ac-DEVD-AMC, tested at 10 μM (stock solution at 1.5 mM in DMSO) Reference inhibitor: […] Ac-DEVD-AMC is a synthetic tetrapeptide fluorogenic substrate for caspase-3 and caspase-7 and contains the amino acid sequence of the PARP cleavage site at […]. […] Enzymes cleave the tetrapeptide between D and AMC resulting in the release of fluorogenic AMC, which can be quantified with a spectrofluorometer. […] In parallel, an additional control (assay buffer containing the substrate) was also performed to determine the background signal. At the end of incubation, the fluorescence intensity emitted by the reaction product (cleaved Ac-DEVD-AMC) was measured at wavelengths λex 380 nm and λem 440 nm using a spectrofluorimeter (SPECTRAmax® Gemini, Molecular Devices).

[2] = 0.001 μg/ml, staurosporine-stimulated NHDF
[3] = 0.001 μg/ml, staurosporine-stimulated NHDF, listed as 16(8)-HE PE EE
[4] = 0.01 μg/ml, staurosporine-stimulated NHDF
[5] = 0.01 μg/ml, staurosporine-stimulated NHDF, listed as 16(8)-HE PE EE
[6] = 0.1 μg/ml, staurosporine-stimulated NHDF
[7] = 0.1 μg/ml, staurosporine-stimulated NHDF, listed as 16(8)-HE PE EE
[8] = 1 μg/ml, staurosporine-stimulated NHDF
[9] = 1 μg/ml, staurosporine-stimulated NHDF, listed as 16(8)-HE PE EE
[10] = 10 μg/ml, staurosporine-stimulated NHDF
[11] = 10 μg/ml, staurosporine-stimulated NHDF, listed as 16(8)-HE PE EE
[12] = 100 μg/ml, staurosporine-stimulated NHDF
[13] = 100 μg/ml, staurosporine-stimulated NHDF, listed as 16(8)-HE PE EE
[14] = 0.1 μm, inhibitor added in the reaction mix of stimulated control lysate
[15] = 0.1 μm, inhibitor added in the reaction mix of stimulated control lysate, listed as Ao-DEVO-CHO

With `CC/C=C\C[C@H](O)/C=C/C=C\C/C=C\C/C=C\CCCC(=O)OCC` [15(S)-HEPE EE] the “Visability (%) Mean” value ([1]; 0.001 μg/ml) was 98%, the “Visability (%)” value ([1]; 0.001 μg/ml) was 99% and 97% and 98% and the “Visability (%) Mean” value ([1]; 0.01 μg/ml) was 96%. The “Visability (%)” value ([1]; 0.01 μg/ml) was 90% and 100% and 98%, the “Visability (%) Mean” value ([1]; 0.1 μg/ml) was 97% and the “Visability (%)” value ([1]; 0.1 μg/ml) was 99% and 96% and 98%. For the same molecule, the “Visability (%) Mean” value ([1]; 1 μg/ml) was 97%, the “Visability (%)” value ([1]; 1 μg/ml) was 96% (2×) and 97% and the “Visability (%) Mean” value ([1]; 10 μg/ml) was 101%. For the same molecule, the “Visability (%)” value ([1]; 10 μg/ml) was 100% and 102% and 101%, the “Visability (%) Mean” value ([1]; 30 μg/ml) was 99% and the “Visability (%)” value ([1]; 30 μg/ml) was 103% and 98% and 96%. For the same molecule, the “Visability (%) Mean” value ([1]; 100 μg/ml) was 104%, the “Visability (%)” value ([1]; 100 μg/ml) was 103% and 105% and 104% and the “Visability (%) Mean” value ([1]; 300 μg/ml) was 100%. For the same molecule, the “Visability (%)” value ([1]; 300 μg/ml) was 98% and 105% and 97%, the “% inhibition” value (caspase-3/7; [2]) was −37% and the “% stimulated control” value (caspase-3/7; [2]) was 134%. For the same molecule, the “Normalized data: Mean (caspase-3/7 activity/proteins)” value (caspase-3/7; [2]) was 114767 AU/mg, the “Caspase-3/7 activity (Fluorescence 380 nm/440 nm)” value (caspase-3/7; [3]) was 1809 AU and 1753 AU and 1686 AU and the “Caspase-3/7 activity - Background (Fluorescence 380 nm/440 nm)” value (shortened to “Caspase-3/7 activity - Background”) (caspase-3/7; [3]) was 1479 AU and 1423 AU and 1396 AU. The Caspese-3/7 activity/proteins (caspase-3/7; [3]) was 109076 AU/mg and 129611 AU/mg and 105615 AU/mg, the “% inhibition” value (caspase-3/7; [4]) was −6% and the “% stimulated control” value (caspase-3/7; [4]) was 106%. The “Normalized data: Mean (caspase-3/7 activity/proteins)” value (caspase-3/7; [4]) was 90306 AU/mg, the “Caspase-3/7 activity (Fluorescence 380 nm/440 nm)” value (caspase-3/7; [5]) was 1495 AU and 1587 AU and 1789 AU and the “Caspase-3/7 activity - Background” value (caspase-3/7; [5]) was 1166 AU and 1258 AU and 1459 AU. The Caspese-3/7 activity/proteins (caspase-3/7; [5]) was 81085 AU/mg and 89757 AU/mg and 100075 AU/mg, the “% inhibition” value (caspase-3/7; [6]) was 4% and the “% stimulated control” value (caspase-3/7; [6]) was 98%. The “Normalized data: Mean (caspase-3/7 activity/proteins)” value (caspase-3/7; [6]) was 82485 AU/mg, the “Caspase-3/7 activity (Fluorescence 380 nm/440 nm)” value (caspase-3/7; [7]) was 1468 AU and 1697 AU and 1154 AU and the “Caspase-3/7 activity - Background” value (caspase-3/7; [7]) was 1139 AU and 1367 AU and 825 AU. The Caspese-3/7 activity/proteins (caspase-3/7; [7]) was 81102 AU/mg and 109799 AU/mg and 56654 AU/mg, the “% inhibition” value (caspase-3/7; [8]) was −9% and the “% stimulated control” value (caspase-3/7; [8]) was 108%. The “Normalized data: Mean (caspase-3/7 activity/proteins)” value (caspase-3/7; [8]) was 93200 AU/mg, the “Caspase-3/7 activity (Fluorescence 380 nm/440 nm)” value (caspase-3/7; [9]) was 1536 AU and 1600 AU and 1735 AU and the “Caspase-3/7 activity - Background” value (caspase-3/7; [9]) was 1206 AU and 1270 AU and 1406 AU. The Caspese-3/7 activity/proteins (caspase-3/7; [9]) was 86474 AU/mg and 94481 AU/mg and 93645 AU/mg, the “% inhibition” value (caspase-3/7; [10]) was 8% and the “% stimulated control” value (caspase-3/7; [10]) was 93%. The “Normalized data: Mean (caspase-3/7 activity/proteins)” value (caspase-3/7; [10]) was 80078 AU/mg, the “Caspase-3/7 activity (Fluorescence 380 nm/440 nm)” value (caspase-3/7; [11]) was 1439 AU and 1551 AU and 1514 AU and the “Caspase-3/7 activity - Background” value (caspase-3/7; [11]) was 1109 AU and 1221 AU and 1184 AU. The Caspese-3/7 activity/proteins (caspase-3/7; [11]) was 76241 AU/mg and 81395 AU/mg and 82597 AU/mg, the “% inhibition” value (caspase-3/7; [12]) was 83% and the “% stimulated control” value (caspase-3/7; [12]) was 26%. For the same molecule, the “Normalized data: Mean (caspase-3/7 activity/proteins)” value (caspase-3/7; [12]) was 21632 AU/mg, the “effect on caspase-3/7 activity (in words)” value (caspase-3/7; [12]) was “clear inhibitory effect” and the “Caspase-3/7 activity (Fluorescence 380 nm/440 nm)” value (caspase-3/7; [13]) was 663 AU and 729 AU and 660 AU. The “Caspase-3/7 activity - Background” value (caspase-3/7; [13]) was 324 AU and 400 AU and 320 AU, the Caspese-3/7 activity/proteins (caspase-3/7; [13]) was 15788 AU/mg and 15464 AU/mg and 19643 AU/mg and the “effect on caspase-3/7 activity (in words)” value (caspase-3/7; tested from 0.001 to 10 μg/ml, staurosporine-stimulated NHDF) was “no effect”.

Ac-DEVD-CHO was tested, and the “inhibition of staurosporine-stimulated caspase-3/7 activity (in words)” value (caspase-3/7; 0.1 μM, added in the reaction mix) was “fully inhibited”, the “% inhibition” value (caspase-3/7; [14]) was 109% and the “% stimulated control” value (caspase-3/7; [14]) was 1%. For the same molecule, the “Normalized data: Mean (caspase-3/7 activity/proteins)” value (caspase-3/7; [14]) was 954 AU/mg, the “Caspase-3/7 activity (Fluorescence 380 nm/440 nm)” value (caspase-3/7; [15]) was 347 AU and 343 AU and 339 AU and the “Caspase-3/7 activity - Background” value (caspase-3/7; [15]) was 17 AU and 13 AU and 10 AU. For the same molecule, the Caspese-3/7 activity/proteins (caspase-3/7; [15]) was 1254 AU/mg and 934 AU/mg and 674 AU/mg.

For `CN[C@@H]1C[C@H]2O[C@@](C)([C@@H]1OC)n1c3ccccc3c3c4c(c5c6ccccc6n2c5c31)C(=O)NC4` [staurosporine], the “increase of caspase-3/7 activity normalized versus protein quantity, staurosporine-stimulated versus non-stimulated conditions” value (caspase-3/7; staurosporine 100 nM, NHDF) was 10 fold.
